Laboratory results published in paper PMC2873993, “Comparative Therapeutic Effects of Velaglucerase Alfa and Imiglucerase in a Gaucher Disease Mouse Model” (PLoS ONE, 2010).
Residue numbers refer to the chain shown, from its start. Each block holds one molecule with its values, some of them ahead of it.

Legend:
[1] = biological target: T1, Imig (Homo sapiens, UniProt P04062, R534H); test: Inhibition of Imig by active site-directed GCase inhibitors (4MU-Glc substrate); format: biochemical; details: 8 pmol enzyme protein; SE ≤20%
T1 construct: purchased Genzyme, Cambridge, MA Lot#A7021H04; host or cells: CHO cells
T1 sequence (P04062 40-536 R534H): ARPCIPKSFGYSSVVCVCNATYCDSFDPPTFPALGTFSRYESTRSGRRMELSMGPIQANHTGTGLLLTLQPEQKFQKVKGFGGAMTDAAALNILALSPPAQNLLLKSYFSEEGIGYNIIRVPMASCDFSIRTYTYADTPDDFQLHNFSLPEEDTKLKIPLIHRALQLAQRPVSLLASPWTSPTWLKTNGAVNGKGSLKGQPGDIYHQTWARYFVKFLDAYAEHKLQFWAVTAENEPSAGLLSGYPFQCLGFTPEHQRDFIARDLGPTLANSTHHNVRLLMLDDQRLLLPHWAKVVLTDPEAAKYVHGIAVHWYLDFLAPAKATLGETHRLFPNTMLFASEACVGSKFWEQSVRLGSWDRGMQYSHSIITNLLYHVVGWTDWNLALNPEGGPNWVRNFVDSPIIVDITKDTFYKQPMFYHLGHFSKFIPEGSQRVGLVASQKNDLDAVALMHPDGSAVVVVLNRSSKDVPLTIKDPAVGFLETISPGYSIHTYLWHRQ

[2] = biological target: T2, Vela (Homo sapiens, UniProt P04062); test: Inhibition of Vela by active site-directed GCase inhibitors (4MU-Glc substrate); format: biochemical; details: 8 pmol enzyme protein; SE ≤20%
T2 construct: purchased HGT/Shire, Cambridge, MA Lot#FEC06-002
T2 sequence (P04062 40-536): T1 sequence (P04062 40-536 R534H) with H495R

[3] = test system: 9 V/null mouse; parameters: method as in PMID 17509920; details: cited from earlier work
[4] = test system: patients; details: Gaucher disease patients; cited from earlier work

IC50 [1]: 146 µM
IC50 [2]: 99.8 µM
Molecule: O[C@H]1[C@H](O)[C@@H](O)[C@@H]2O[C@@H]2[C@@H]1O (racemic) [Conduritol B epoxide]

Molecule: CCCCCCCC(=O)N[C@H](CN1CCCC1)[C@H](O)c1ccc2c(c1)OCCO2 [Genz 112638]
effect on alveolar Gaucher cells [3]: clearance of the alveolar Gaucher cells

B1: alglucerase (protein, UniProt P04062 40-536, looked up)
Lysosomal acid …: T1 sequence (P04062 40-536 R534H) with H495R
modifications: mannosyl-terminated glycans
patients who developed an IgG antibody response [4]: 13–15%
